Experimental data as given in ChEMBL document CHEMBL2040746, “Synthesis and evaluation of novel podophyllotoxin analogs” (Bioorg Med Chem Lett, 2012).
Values after ≈ are worked out from the molar mass of the structure shown.

Tests used:
Format in all cases: functional, cell-based
[1] = test system: A549; assay: Cytotoxicity against human A549 cells by SRB assay
[2] = test system: DU-145; assay: Cytotoxicity against human DU145 cells by SRB assay
[3] = test system: KB; assay: Cytotoxicity against human KB cells by SRB assay
[4] = Cytotoxicity against human KBVIN cells by SRB assay

Compound	IC50 [1]	IC50 [2]	IC50 [3]	IC50 [4]
COC(=O)[C@H]1C(/C=C/C(=O)c2ccc([N+](=O)[O-])cc2)=Cc2cc(OC)c(OC)cc2[C@H]1c1cc(OC)c(OC)c(OC)c1	16.8 µg/mL (≈ 28.5 µM)	20.3 µg/mL (≈ 34.4 µM)	16 µg/mL (≈ 27.1 µM)	23 µg/mL (≈ 39 µM)
COc1cc2c(cc1OC)[C@@H](c1cc(OC)c(OC)c(OC)c1)[C@H](C(=O)N1CCCC1)C(/C=C/C(=O)c1ccc(C3CCCCC3)cc1)=C2	12 µg/mL (≈ 18 µM)	12.8 µg/mL (≈ 19.2 µM)	12.3 µg/mL (≈ 18.4 µM)	12.3 µg/mL (≈ 18.5 µM)
COC(=O)[C@H]1C(/C=C/C(=O)c2ccc(O)cc2)=Cc2cc(OC)c(OC)cc2[C@H]1c1cc(OC)c(OC)c(OC)c1	6.79 µg/mL (≈ 12.1 µM)	5.84 µg/mL (≈ 10.4 µM)	5.9 µg/mL (≈ 10.5 µM)	5.17 µg/mL (≈ 9.22 µM)
COc1cc2c(cc1OC)[C@@H](c1cc(OC)c(OC)c(OC)c1)[C@H](C(=O)N1CCCC1)C(/C=C/C(=O)c1ccc(-c3ccccc3)cc1)=C2	24.6 µg/mL (≈ 37.3 µM)	15.5 µg/mL (≈ 23.4 µM)	16.6 µg/mL (≈ 25.2 µM)	16.9 µg/mL (≈ 25.6 µM)
COc1cc([C@@H]2c3cc4c(cc3[C@@H](Nc3ccc([N+](=O)[O-])cc3)[C@H]3COC(=O)[C@H]23)OCO4)cc(OC)c1O	0.113 µg/mL (≈ 0.217 µM)	0.8 µg/mL (≈ 1.54 µM)	0.819 µg/mL (≈ 1.57 µM)	2.1 µg/mL (≈ 4.03 µM)
